{"source": "paper PMC3693846", "about": "(Cellular and molecular neurobiology, 2013)", "system": "L-type voltage-gated calcium channel (subtype not resolved)", "type": "cell-based", "data": [{"smiles": "CC(C)n1cnc2c(NCCCCCCNC(=O)OC(C)(C)C)nc(NCCO)nc21", "note": "[CK59, 2-(2-Hydroxyethylamino)-6-aminohexylcarbamic acid tert-butyl ester-9-isopropylpurine]", "values": [{"measurement": "% decrease of current at 50 μM", "result": "67.47 % decrease of current at 50 μM"}]}]}
